Reference: paper PMC10463376, “Design, synthesis, in vitro anticancer, molecular docking and SAR studies of new series of pyrrolo[2,3-d]pyrimidine derivatives” (BMC Chemistry, 2023)

Key:
Format in all cases: cell-based, human
caspase 3 = assay: ELISA caspase 3 in Paca2 cells; settings: control 5.34
Text: (§1) Elisa assay was used to determine the concentrations of Human caspases-3, -8, Bax, and Bcl2 in PACA2- and A549-treated cells. Also, the concentrations of caspase-8, Bax, and Bcl2 in MCF7-treated cells were detected. The procedures were followed up according to the instructions described in the following kits; Invitrogen human Caspase-3 Elisa Kit, Catalog KHO1091, DRG® human Caspase-8 ELISA Kit, Catalog (EIA-4863), Human Bax ELISA Kit (ab199080) and Human Bcl-2 ELISA Kit (ab119506) respectively. Shortly, the protocol described in the above kits was as followed; at the beginning, all the reagents, samples and standards were prepared. 100 μl of samples or standard were micro pipetted to each well of micro-well strip and kept at room temperature for 2 h. After washing the micro-well strips three times with washing buffer, the prepared antibody (anti-rabbit-IgG-HRP) at a concentration of 100 μl was added to each well at room temperature for 1 h. Then, the micro-well strips were washed again three times. Afterward, the prepared tetramethyl-benzidine (TMB) solution (100 μl) was added to the micro-well strips and kept for 10 min. […] The absorbance of all samples was measured at a wavelength of 460 nm and compared to that of the standard. Curve fitting software was used to plot a standard curve and the concentrations for the unknown samples were measured from the standard curve.

BAX [1] = assay: ELISA BAX in Paca2 cells; settings: control 3.86
Text: as §1

Bcl2 [2] = assay: ELISA Bcl2 in Paca2 cells; settings: control 16.23
Text: as §1

Paca2 cells = assay: Annexin V-FITC/PI apoptosis flow cytometry, Paca2; settings: Paca2, 24 h, IC50
Procedure: The percentage of apoptotic cells was detected by using Annexin V-FITC kit catalog number (#K101-25). About 2X10^6 of MCF7 and Paca2 cells were washed in 500 µl of 1 × PBS. Then, the cells were centrifuged and the supernatant was discarded. The cells pellet were re-suspended in the annexin V incubation reagent. The annexin V incubation reagent contained 10 μl binding buffer (10 ×), 10 μl propidium iodide, 1 μl annexin V-FITC, and 79 μl deionized water. The cells were incubated in 100 μl annexin V incubation reagent for 15 min in the dark at room temperature. Finally, the apoptotic cell percentage was detected by flow cytometry using the FITC signal detector (usually FL-1) and PI staining by the phycoerythrin emission signal detector (usually FL-2).

caspase 8 = assay: ELISA caspase 8 in A549 cells; settings: control 5.83
Text: as §1

BAX [3] = assay: ELISA BAX in A549 cells; settings: control 5.84
Text: as §1

Bcl2 [4] = assay: ELISA Bcl2 in A549 cells; settings: control 16.21
Text: as §1

lung cell line (A549) = assay: DNA fragmentation assay, A549; settings: A549, IC50, 24 h, vs negative control (P < 0.01); Dox. higher than 4b
Procedure: The DNA fragmentation assay in a pancreatic cell line (Paca2), breast cancer cell lines (MCF-7) and lung cell line (A549) was performed in concordance with the premises established by Yawata with some modifications. Briefly, after 24 h of exposure of Paca2, MCF-7 and A549 cancer cell lines to the prepared compounds in different Petri dishes (60 × 15 mm, Greiner), the cells were suspended and homogenized in 1 ml of medium and then centrifuged for 10 min at 900 rpm. The genomic DNA was extracted as shown in Yawata. About 1 × 10^6 cells of each tested cancer cell line were treated with the IC50 values of the tested compounds. All the cells were collected via trypsinization and washed with Dulbecco`s Phosphate Buffered Saline. Then, the cells were treated with the lysis buffer containing 5 mM ethylenediaminetetraacetic acid (EDTA), 10 mM Tris (pH 7.4), 0.5% Triton X-100 and 150 mM NaCl for 35 min on ice. […] Finally, the percentage of fragmented DNA was determined by performing gel electrophoresis using 2% agarose gel containing 0.1 μg/ml ethidium bromide.
Pancreatic cancer cell line (Paca2), breast cancer cell line (MCF-7) and lung cancer cell line (A549) were used to determine the percentage of DNA fragmentation after the treatment with IC50 of the tested compounds. […] The percentage of fragmented DNA was measured from the absorbance reading at 600 nm wavelength using the following formula: […]

CDK4 = assay: RT-qPCR CDK4 mRNA in A549; settings: A549, compared with Dox.
Procedure: (§2) All of the extractions were conducted on ice with ice-cold reagents. Total RNA from the different cell lines was isolated using Trizol (Invitrogen; Life Technologies, USA) according to the method of Sthoeger et al.. The 260:280 ratios were measured to determine RNA quality after the isolation method was completed according to the manufacturer’s instructions. A high-capacity cDNA reverse transcription kit was used to produce complementary DNA (cDNA) (Applied Biosystems, USA). […] The relative gene expression method (i.e., ΔΔCT) was used to analyze the real-time PCR data, as explained in Applied Biosystem User Bulletin No. 2. Each sample and gene were normalized using the β-actin gene.

IL-8 = assay: RT-qPCR IL-8 mRNA in A549; settings: A549, compared with Dox.
Procedure: as §2

Row | SMILES | caspase 3 level (ELISA) (caspase 3) [pg/mL] | BAX level (ELISA) (BAX [1]) [pg/mL] | Bcl2 concentration (ELISA) (Bcl2 [2]) [pg/mL] | percentage of late apoptotic cells (Q1-UR) (Paca2 cells; control 0.54%) [%] | percentage of necrotic cells (Q1-UL) (Paca2 cells; control 2.27%) [%] | percentage of early apoptotic cells (Q1-LR) (Paca2 cells; control 4.46%) [%] | caspase 8 level (ELISA) (caspase 8) [pg/mL] | BAX level (ELISA) (BAX [3]) [pg/mL] | Bcl2 level (ELISA) (Bcl2 [4]) [pg/mL] | DNA fragmentation value (lung cell line (A549)) | CDK4 mRNA level (CDK4) | IL-8 mRNA level (IL-8)
1 | CN1CCN(c2nc(C(Cl)(Cl)Cl)nc3c2c(-c2ccc(Br)cc2)c(Cl)n3-c2ccc(Cl)cc2Cl)CC1 [Compound 17, 5-(4-bromophenyl)-6-chloro-7-(2,4-dichlorophenyl)-4-(4-methylpiperazin-1-yl)-2-(trichloromethyl)-7H-pyrrolo[2,3-d]pyrimidine] | 9.14 | 11.85 | 6.26 | 0.86 | 6.17 | 4.74 |  |  |  |  |  | 
2 | COc1ccc(-c2c(Cl)n(-c3ccc(Cl)cc3Cl)c3ncnc(Cl)c23)cc1OC [Compound 4b, 4,6-dichloro-7-(2,4-dichlorophenyl)-5-(3,4-dimethoxyphenyl)-7H-pyrrolo[2,3-d]pyrimidine] |  |  |  |  |  |  | 16.84 | 14.83 | 9.4 | increased significantly | down-regulated | down-regulated
